# Results published in the OPERA property sets (Mansouri et al. 2018).
# Conditions: for log10 biotransformation half-life (days) / log10 BCF: fish
Compound,melting point [°C],boiling point [°C],also measured
CC(C)=CCC[C@@H](C)[C@H]1CC[C@@]2(C)C3=C(CC[C@]12C)[C@@]1(C)CC[C@H](O)C(C)(C)[C@@H]1CC3,140,–,–
O=C1CCCC(=O)C1,106,–,–
O=C(Cl)c1ccccc1Br,11,243,–
CCOC(=O)C(=O)OCC,-40.6,186,log10 vapour pressure (mmHg): -0.383; ready biodegradability: readily biodegradable
C#CC(C)(C)NC(=O)c1ccc(Br)cc1,–,–,log10 Koc (L/kg): 2.01
Fc1ccncc1,–,109,–
CCc1nn(CCCN2CCN(c3cccc(Cl)c3)CC2)c(=O)n1CCOc1ccccc1,83.5,–,–
CON,–,49.5,log10 vapour pressure (mmHg): 2.46
CN1C(=O)C(=O)c2ccccc21,132,–,–
Clc1cc(Cl)c2c(Cl)cccc2c1Cl,–,–,log10 Koa: 8.58
C=C(CC)CCC,–,94,–
CC(C)(O)Cc1ccc(Cl)cc1,34,–,–
N#Cc1c[nH]cc1-c1cccc(Cl)c1Cl,147,–,log10 vapour pressure (mmHg): -7.08
CCOC(=O)CC(=O)C(C)C,-9,173,–
N#Cc1cccc(C(=O)O)c1,219,–,–
CCCCC(C)Cl (configuration not stated),–,122,log10 vapour pressure (mmHg): 1.13
Clc1ccc(Oc2ccc(Cl)cc2Cl)c(Cl)c1,–,–,log10 biotransformation half-life (days): 2.28
CCc1c(C)cccc1C,-16.2,190,log10 vapour pressure (mmHg): -0.132
CC(C)COC(N)=O,67,207,–
CCCCCCCCCCCCOS(=O)(=O)O,–,–,ready biodegradability: readily biodegradable
CCN1CCN(C(=O)N[C@@H](C(=O)N[C@@H]2C(=O)N3C(C(=O)O)=C(CSc4nnnn4C)CS[C@H]23)c2ccc(O)cc2)C(=O)C1=O,169,–,–
CS(=O)(=O)c1ccc2c(c1)N(CCCN1CCC(C(N)=O)CC1)c1ccccc1S2,170,–,–
Cc1ccc(C)c(C)c1,-43.8,169,log10 Henry constant (atm·m³/mol): -2.21; log10 biodegradation half-life (days): 0.602; log10 vapour pressure (mmHg): 0.322; ready biodegradability: not readily biodegradable; log10 BCF: 2.08; log10 biotransformation half-life (days): -0.31
CC=Cc1ccc2c(c1)OCO2,8.2,253,–

Compound,melting point [°C],boiling point [°C],also measured
c1ccc(Cc2cccnc2)cc1,34,287,–
Clc1cc(-c2cc(Cl)c(Cl)c(Cl)c2Cl)c(Cl)c(Cl)c1Cl,–,–,log10 Henry constant (atm·m³/mol): -5; log10 Koc (L/kg): 6.41; log10 biotransformation half-life (days): 3
CC/C=C\CC=O,–,121,–
CC=C(C)C(C)C(C)=O (configuration not stated),–,154,–
CC=CCCc1ccccn1,–,216,–
COC(=O)C(C)(C)C,–,101,log10 Henry constant (atm·m³/mol): -3.37
CCCCCCC(C)CC (configuration not stated),-84.8,168,–
CCCCCCCCCCCCCCCCCC#N,41,362,–
Clc1cc(Cl)cc(Br)c1,83,232,–
COc1cc(Cl)cc(OC)c1,35,234,–
CN(C)N,-58,63.9,log10 vapour pressure (mmHg): 2.21; ready biodegradability: not readily biodegradable
Nc1ccc(Nc2ccc(N)cc2)cc1,158,–,–
Nc1ccc(Cl)nc1Cl,119,–,–
C=CCOC=C,–,66,–
CCN(CC)c1ccc(N=O)cc1,87.5,–,–
CN(C)C(=O)Nc1cccc(Cl)c1,–,–,log10 Koc (L/kg): 1.79
CC(C)(C)N(NC(=O)c1ccccc1)C(=O)c1ccc(Cl)cc1Cl,134,–,–
CCOC(=O)c1c(N)sc2c1CCN(Cc1ccccc1)C2,112,–,–
N#CC1CC2CCC1C2 (configuration not stated),44,–,–
CCOC(=O)c1ccc(OC)cc1,7.5,270,–
Cc1c2ccccc2c(C)c2c1ccc1ccccc12,122,–,log10 Koc (L/kg): 5.37
Cc1c(F)c(F)c(COC(=O)C2C(/C=C(\Cl)C(F)(F)F)C2(C)C)c(F)c1F (configuration not stated),44.6,–,log10 vapour pressure (mmHg): -4.22
CCCCCCCCCCCCCCC(=O)OC,18.5,–,log10 vapour pressure (mmHg): -3.79
COc1ccc(-c2cc(=O)c3c(O)cc(O)cc3o2)cc1,263,–,–

Compound,melting point [°C],boiling point [°C],also measured
C[C@H]1C[C@@H]2[C@H]([C@@H](O)C[C@@]3(C)[C@H]2CC[C@]3(O)C(=O)CO)[C@@]2(C)C=CC(=O)C=C12,232,–,–
CCC[C@H]1CCCCC1=O,–,197,–
COc1ccc2[nH]c(S(=O)Cc3ncc(C)c(OC)c3C)nc2c1 (configuration not stated),156,–,–
CC(C)(C)CCO,-60,143,log10 vapour pressure (mmHg): 0.389
COc1ccc(S)cc1,–,228,–
C/C=C/C=C/C(=O)OC,15,180,–
O=[N+]([O-])c1cc(S(=O)(=O)c2ccc(F)c([N+](=O)[O-])c2)ccc1F,194,–,–
O=C1C[C@@H]2OCC=C3CN4CC[C@]56c7ccccc7N1[C@H]5[C@H]2[C@H]3C[C@H]46,287,–,–
CON=C(C)c1cccc(Oc2nc(OC)cc(OC)n2)c1C(=O)OC,107,–,log10 vapour pressure (mmHg): -6.64
O=c1c(Cl)c(Cl)cnn1-c1ccccc1,162,–,log10 vapour pressure (mmHg): -4.05
CON(C)C(=O)Nc1ccc(Br)cc1,95,–,log10 Koc (L/kg): 2.1; log10 vapour pressure (mmHg): -5.52
CCCCCCCCOC(=O)CC,-42.6,228,–
COC(=O)C(F)(F)F,–,43.2,–
FC1(F)C(F)(F)C(F)(F)C2(F)C(F)(F)C(F)(F)C(F)(F)C(F)(F)C2(F)C1(F)F (configuration not stated),-10,–,–
O=C(O)c1ccccc1C1c2ccc(O)cc2Oc2cc(O)ccc21,126,–,–
Clc1c(Cl)c(Cl)c2c(c1Cl)Oc1ccccc1O2,188,–,log10 Henry constant (atm·m³/mol): -4.7; log10 Koa: 9.7; log10 vapour pressure (mmHg): -7.32; log10 BCF: 3.46; log10 biotransformation half-life (days): 1.02
C#C,-80.7,-84.7,log10 vapour pressure (mmHg): 4.56
Oc1ccc(Cc2ccc(O)cc2)cc1,162,–,ready biodegradability: not readily biodegradable
O=C(O)c1cccc(C(F)(F)F)c1,106,238,–
C[Si]1(C)O[Si](C)(C)O[Si](C)(C)O1,64.5,134,log10 vapour pressure (mmHg): 0.548
CCCCOc1ccc(O)cc1,65.5,–,–
NNC(=O)c1ccc(Br)cc1,166,–,–
COc1ccccc1CCN,–,236,–
CCOC(=O)c1ccc(N)cc1,92,310,–

Compound,melting point [°C],boiling point [°C],also measured
C/C=C(\C)C(=O)O[C@H]1C[C@@H](OC(C)=O)[C@@]2(C(=O)OC)CO[C@H]3[C@@H](O)[C@@](C)([C@]45O[C@@]4(C)[C@H]4C[C@@H]5O[C@@H]5OC=C[C@@]54O)[C@H]4[C@]1(CO[C@]4(O)C(=O)OC)[C@@H]32,156,–,–
CCCCCC(=O)CC(C)=O,-18,–,–
CC#Cc1cc(C)nc(Nc2ccccc2)n1,133,–,log10 vapour pressure (mmHg): -6.76
Oc1cc(O)c2c(c1)O[C@H](c1ccc(O)c(O)c1)[C@@H](O)C2,–,–,log10 Koc (L/kg): 2.03
CO[C@H](C(=O)[C@@H](O)[C@@H](C)O)C1Cc2cc3cc(O[C@H]4C[C@@H](O[C@H]5C[C@@H](O)[C@H](O)[C@@H](C)O5)[C@@H](O)[C@@H](C)O4)c(C)c(O)c3c(O)c2C(=O)[C@H]1O[C@H]1C[C@@H](O[C@H]2C[C@@H](O[C@H]3C[C@](C)(O)[C@H](O)[C@@H](C)O3)[C@H](O)[C@@H](C)O2)[C@H](O)[C@@H](C)O1 (some centres not stated),182,–,–
c1ccc2c(c1)OCCOCCOc1ccccc1OCCOCCO2,163,–,–
C=COCCCCCCCCCCCCCCCC,16,–,–
C[N+](C)(C)CCOC(=O)CCC(=O)OCC[N+](C)(C)C.[I-].[I-],244,–,–
O=C(O)c1c(F)c(F)cc(F)c1F,151,–,–
Cc1cc2ncn(C3OC(CO)C(O)C3O)c2cc1C (configuration not stated),198,–,–
CCOC(=O)c1ccc(Cl)cc1,–,238,–
Brc1ccncc1,0.5,–,–
CCCC(CC(OCC)OCC)OCC (configuration not stated),-100,–,–
CCCCCc1cc(O)c2c(c1)OC(C)(C)c1ccc(C)cc1-2,77,–,ready biodegradability: readily biodegradable
C=C[Si](OC(C)C)(OC(C)C)OC(C)C,–,180,–
O=C1c2ccccc2C(=O)c2c1ccc([N+](=O)[O-])c2[N+](=O)[O-],341,–,log10 vapour pressure (mmHg): -11.2
FC(F)(F)c1cccc(C(c2ccccc2)(c2ccccc2)n2cncn2)c1,132,–,–
CCCC(CC)(CC)CC,–,166,–
COB1OB(OC)OB(OC)O1,10,130,–
COC(=O)Cc1ccccc1,–,216,–
CCCCCCCOC=O,–,178,–
CCC(O)c1ccccc1 (configuration not stated),–,219,–
CCN=C=S,-5.9,132,log10 vapour pressure (mmHg): 1.06
COC(=O)c1cc(Oc2ccc(Cl)cc2Cl)ccc1[N+](=O)[O-],85,–,log10 Koc (L/kg): 4; log10 vapour pressure (mmHg): -7

Compound,melting point [°C],boiling point [°C],also measured
CC(=CC(C)(C)C)CC(C)(C)C,–,–,log10 biotransformation half-life (days): 0.7
CC(CCc1ccccc1)NC(C)C(O)c1ccc(O)cc1 (configuration not stated),112,–,–
C=CCC1=C(C)C(OC(=O)C2C(C=C(C)C)C2(C)C)CC1=O (configuration not stated),-40,–,log10 vapour pressure (mmHg): -5.92; ready biodegradability: not readily biodegradable
O=C1OC(=O)C(F)(F)C(F)(F)C1(F)F,–,72,–
Oc1ccccc1C=Nc1ccccc1,49.5,–,–
C=Cc1ccccc1,-31,145,log10 Henry constant (atm·m³/mol): -2.56; log10 Koc (L/kg): 2.96; log10 vapour pressure (mmHg): 0.806; ready biodegradability: readily biodegradable; log10 BCF: 1.13
CC1CCOC1 (configuration not stated),–,86.5,–
CC[C@H](Br)C(=O)O,-4,–,–
Cc1cc(C)c2ccccc2c1,–,–,log10 biotransformation half-life (days): 0.51
O=C1OC(=O)c2c1ccc(Cl)c2Cl,121,329,–
CCOOCC,-70,65,–
COc1ccc(NC(N)=O)cc1Cl,–,–,log10 Koc (L/kg): 2
CC1=CCC(C(C)(C)O)CC1 (configuration not stated),37,219,log10 Henry constant (atm·m³/mol): -5.65; log10 vapour pressure (mmHg): -1.37; ready biodegradability: readily biodegradable
Oc1ccc2c(O)c3ccccc3cc2c1O,208,–,–
CC(O)CCCCO (configuration not stated),–,237,–
CN(C)c1ccccc1C(=O)O,72,–,–
CN(C)C(C)(C)CO,19,160,–
CCCCCC(=NO)C(C)=O,59,–,–
CCOC(=O)C(Br)CC (configuration not stated),–,177,–
CCSCC(=O)O,-8.5,–,–
CCC(C)C(C)(C)C(C)C (configuration not stated),–,165,–
Cc1ccc2cc3ccccc3cc2c1,209,–,log10 vapour pressure (mmHg): -5.27; log10 biotransformation half-life (days): -0.02
